Measurements published in patent US9469615B2, “Quinoxalines and AZA-quinoxalines as CRTH2 receptor modulators” (Merck Sharp & Dohme Corp., priority 2010, dated 2016).

Biological target: T1, hCRTH2 (Homo sapiens, UniProt Q9Y5Y4)
T1 construct: expressed in transfected cells; host or cells: HEK (human embryonic kidney) cells expressing hCRTH2; membrane preparation
T1 sequence (Q9Y5Y4 1-395): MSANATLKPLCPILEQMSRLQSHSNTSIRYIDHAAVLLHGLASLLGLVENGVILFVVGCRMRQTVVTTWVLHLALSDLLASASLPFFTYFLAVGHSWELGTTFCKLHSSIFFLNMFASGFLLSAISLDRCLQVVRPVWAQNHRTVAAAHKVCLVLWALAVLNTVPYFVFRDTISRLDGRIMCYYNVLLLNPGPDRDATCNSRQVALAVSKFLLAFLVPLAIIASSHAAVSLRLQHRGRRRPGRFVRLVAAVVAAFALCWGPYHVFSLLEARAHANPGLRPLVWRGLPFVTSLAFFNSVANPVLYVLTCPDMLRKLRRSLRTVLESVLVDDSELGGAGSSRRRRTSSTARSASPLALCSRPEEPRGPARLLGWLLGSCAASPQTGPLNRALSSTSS
Experiment: Radioligand binding assay ([3H]PGD2 competition, HEK-hCRTH2 membranes)
Conditions: [3H]PGD2 binding, rated A-E (Table A)
Method in brief: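 Membranes (8-20 μg protein) from HEK-hCRTH2 cells were incubated 60 min at room temperature with 3.0 nM [3H]PGD2 in 50 mM Tris-HCl pH 7.4, 1 mM EDTA, 2 mM MnCl2, 1% DMSO. Non-specific binding defined with 10 μM PGD2. Bound radioactivity counted after filtration.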

Ki	SMILES
0.0021 to 0.02 µM	CN1CC2(CCN(C(=O)c3ccc4nc(-c5ccccc5)c(CCCCC(=O)O)nc4c3)CC2)c2ccccc21 [compound 122, 7-[(1,2-dihydro-1-methylspiro[3H-indole-3,4′-piperidin]-1′-yl)carbonyl]-3-phenyl-2-quinoxalinepentanoic acid]
0.0021 to 0.02 µM	CC(CCCc1nc2cc(C(=O)N[C@@H](C)c3ccc(F)cc3)ccc2nc1-c1ccc(Cl)cc1)C(=O)O (stereo partly drawn) [compound 167, 3-(4-chlorophenyl)-7-[[[1(S)-(4-fluorophenyl)ethyl]amino]carbonyl]-alpha-methyl-2-quinoxalinepentanoic acid]
0.0021 to 0.02 µM	CC(CCCc1nc2cc(C(=O)N(C)Cc3cccc(F)c3)ccc2nc1-c1ccc(F)cc1)C(=O)O (stereo not drawn) [compound 211, 3-(4-fluorophenyl)-7-[[[(3-fluorophenyl)methyl]methylamino]carbonyl]-alpha-methyl-2-quinoxalinepentanoic acid]

Same assay, conditions: [3H]PGD2 competition, Table B

Ki	SMILES
0.0001 to 0.002 µM	O=C(O)CCCCc1nc2cc(C(=O)N3CCN(c4cccc(Cl)c4Cl)CC3)ccc2nc1-c1ccc(Cl)cc1 [compound 635, 5-(3-(4-chlorophenyl)-7-(4-(2,3-dichlorophenyl)piperazine-1-carbonyl)quinoxalin-2-yl)pentanoic acid]
0.0021 to 0.02 µM	O=C(O)CCCCc1nc2cc(C(=O)N3CCOC[C@H]3c3ccccc3)ccc2nc1-c1ccc(Cl)cc1 [compound 661, (R)-5-(3-(4-chlorophenyl)-7-(3-phenylmorphohne-4-carbonyl)quinoxalin-2-yl)pentanoic acid]
0.0201 to 0.2 µM	O=C(O)CCCCc1nc2cc(C(=O)N3CCC(n4c(=O)[nH]c5ccccc54)CC3)ccc2nc1-c1ccc(F)cc1 [compound 356, 5-(3-(4-fluorophenyl)-7-(4-(2-oxo-2,3-dihydro-1H-benzo[d]imidazol-1-yl)piperidine-1-carbonyl)quinoxalin-2-yl)pentanoic acid]
